The Ki is a dissociation constant, usually derived from enzyme kinetics or from competition with a known ligand.

The source of these data is article PMC6347702 (Proceedings of the National Academy of Sciences of the …, 2019).

Common to all, as to assay: spectrophotometric enzyme assay, recombinant human enzyme, […] ATP-Mg2+
Common to all, as to type: biochemical

One assay addresses T1, hexokinase 2 (∆28-hHK2) (Homo sapiens, UniProt P52789).
T1 sequence (P52789 29-917): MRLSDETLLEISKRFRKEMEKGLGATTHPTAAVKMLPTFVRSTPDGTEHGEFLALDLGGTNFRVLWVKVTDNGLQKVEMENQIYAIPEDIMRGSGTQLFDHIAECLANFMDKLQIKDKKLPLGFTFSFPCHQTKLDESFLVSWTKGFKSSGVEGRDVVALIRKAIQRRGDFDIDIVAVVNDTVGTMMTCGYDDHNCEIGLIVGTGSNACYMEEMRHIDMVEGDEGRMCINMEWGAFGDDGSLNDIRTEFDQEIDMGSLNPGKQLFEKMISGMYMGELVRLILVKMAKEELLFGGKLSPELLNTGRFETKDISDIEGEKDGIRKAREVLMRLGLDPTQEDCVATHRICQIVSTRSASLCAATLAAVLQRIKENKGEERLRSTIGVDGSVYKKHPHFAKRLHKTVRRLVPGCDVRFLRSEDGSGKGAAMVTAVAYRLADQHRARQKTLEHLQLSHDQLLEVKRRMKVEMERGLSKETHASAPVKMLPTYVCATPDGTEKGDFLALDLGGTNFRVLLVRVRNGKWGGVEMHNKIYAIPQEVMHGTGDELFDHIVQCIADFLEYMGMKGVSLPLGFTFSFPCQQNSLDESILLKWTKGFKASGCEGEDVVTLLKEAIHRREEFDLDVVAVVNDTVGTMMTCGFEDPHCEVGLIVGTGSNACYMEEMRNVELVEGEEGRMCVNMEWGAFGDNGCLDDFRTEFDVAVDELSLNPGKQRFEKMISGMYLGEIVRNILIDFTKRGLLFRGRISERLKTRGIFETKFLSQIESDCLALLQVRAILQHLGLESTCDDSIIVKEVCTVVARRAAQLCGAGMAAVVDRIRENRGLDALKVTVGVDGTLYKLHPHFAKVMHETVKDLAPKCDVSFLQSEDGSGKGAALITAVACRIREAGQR

The next assay has as its target T2, hexokinase 3 (hHK3) (Homo sapiens, UniProt P52790).
T2 sequence (P52790 1-923): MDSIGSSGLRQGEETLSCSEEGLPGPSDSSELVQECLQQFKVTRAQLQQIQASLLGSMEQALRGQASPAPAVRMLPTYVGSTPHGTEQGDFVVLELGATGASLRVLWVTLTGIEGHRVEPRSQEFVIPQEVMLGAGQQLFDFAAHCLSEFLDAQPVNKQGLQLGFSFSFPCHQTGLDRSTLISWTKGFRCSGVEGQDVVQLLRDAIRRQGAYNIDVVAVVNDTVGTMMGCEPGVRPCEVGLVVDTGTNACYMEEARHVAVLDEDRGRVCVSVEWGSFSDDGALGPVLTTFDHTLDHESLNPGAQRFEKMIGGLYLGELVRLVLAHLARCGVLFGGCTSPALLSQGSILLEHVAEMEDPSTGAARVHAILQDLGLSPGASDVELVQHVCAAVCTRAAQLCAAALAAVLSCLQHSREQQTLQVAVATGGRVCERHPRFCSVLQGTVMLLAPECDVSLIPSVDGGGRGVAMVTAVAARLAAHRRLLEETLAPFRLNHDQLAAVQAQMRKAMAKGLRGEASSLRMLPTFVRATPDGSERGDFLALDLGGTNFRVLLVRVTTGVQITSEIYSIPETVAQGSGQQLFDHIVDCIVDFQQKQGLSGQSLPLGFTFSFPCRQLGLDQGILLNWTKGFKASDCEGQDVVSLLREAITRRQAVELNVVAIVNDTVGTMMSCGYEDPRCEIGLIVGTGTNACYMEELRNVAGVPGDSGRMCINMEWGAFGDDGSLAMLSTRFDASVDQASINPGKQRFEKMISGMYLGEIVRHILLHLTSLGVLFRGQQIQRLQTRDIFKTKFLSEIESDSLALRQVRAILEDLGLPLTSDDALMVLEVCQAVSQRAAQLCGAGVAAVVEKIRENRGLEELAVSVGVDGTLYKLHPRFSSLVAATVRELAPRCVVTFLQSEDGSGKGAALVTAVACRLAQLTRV

The target in the next assay is T3, hexokinase 1 (∆21-hHK1) (Homo sapiens, UniProt P19367).
T3 sequence (P19367 22-917): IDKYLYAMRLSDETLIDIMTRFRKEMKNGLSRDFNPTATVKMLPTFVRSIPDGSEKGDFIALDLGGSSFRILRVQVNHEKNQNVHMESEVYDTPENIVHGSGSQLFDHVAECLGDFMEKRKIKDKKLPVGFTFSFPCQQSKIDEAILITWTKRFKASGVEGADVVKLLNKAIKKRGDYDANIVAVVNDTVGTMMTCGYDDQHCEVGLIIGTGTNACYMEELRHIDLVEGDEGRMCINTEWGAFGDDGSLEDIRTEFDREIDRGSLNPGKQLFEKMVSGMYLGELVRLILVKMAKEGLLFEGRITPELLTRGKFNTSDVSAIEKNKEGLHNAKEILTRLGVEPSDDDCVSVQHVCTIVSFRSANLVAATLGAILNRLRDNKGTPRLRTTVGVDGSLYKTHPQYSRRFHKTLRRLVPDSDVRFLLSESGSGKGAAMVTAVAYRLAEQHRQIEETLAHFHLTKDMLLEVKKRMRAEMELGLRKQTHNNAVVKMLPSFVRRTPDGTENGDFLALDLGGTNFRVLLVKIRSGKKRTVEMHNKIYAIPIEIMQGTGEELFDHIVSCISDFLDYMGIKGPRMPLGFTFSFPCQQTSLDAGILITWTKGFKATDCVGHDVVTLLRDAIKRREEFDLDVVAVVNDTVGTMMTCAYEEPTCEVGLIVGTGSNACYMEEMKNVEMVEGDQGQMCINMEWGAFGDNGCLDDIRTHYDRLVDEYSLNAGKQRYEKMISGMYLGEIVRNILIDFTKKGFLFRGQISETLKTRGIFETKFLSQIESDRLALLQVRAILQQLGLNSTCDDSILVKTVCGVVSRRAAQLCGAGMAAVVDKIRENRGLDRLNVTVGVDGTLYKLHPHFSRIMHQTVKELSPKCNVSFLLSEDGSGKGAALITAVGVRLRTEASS

`O=P(O)(O)OC[C@H]1OC[C@H](O)[C@@H](O)[C@@H]1O` [1,5AG6P, 1,5-anhydroglucitol-6-phosphate]: the inhibitory constant (Ki) came out at 96 ± 3 µM on hexokinase 2 (∆28-hHK2), 134 ± 9 µM on hexokinase 3 (hHK3) and 53 ± 2 µM at hexokinase 1 (∆21-hHK1).
